Reference: patent US5449673A, “10,11-dihydro-10-(3-substituted-1-oxo-2-propyl, propenyl or propynyl)dibenz[b,f][1,4] oxazepine prostaglandin antagonists” (G. D. Searle & Co., priority 1994, dated 1995)
Where a name gives a salt, the structure may show the parent alone. Read-outs that look alike come from different tables or passages of the source.

Assays:
mice = experiment: PBQ Writhing Assay (analgesia in mice); format: in vivo, mouse (Charles River male albino mice); conditions: for responders at 30 mg/kg: 0.5 h, 30 mg per kg, 30 min before PBQ, fraction out of 9 or 10 mice; for rank order of potency in the Writhing Assay: more potent compounds tested
Text: The Writhing Assay is one of the most widely-used experimental procedures for measuring the analgesic activity of different narcotic and nonnarcotic analgesic agents, and involves the continuous, chemically-induced pain of visceral origin to an animal, such as a mouse or rat. [Gyires et al., Arch. int. Pharmacodyn, 267, 131-140 (1984); C. Vander Wende et al., Fed. Proc., 15, 494 (1956); Koster et al., Fed. Proc., 18, 412 (1959); and Witken et al., J. Pharmacol. exp. Ther., 133, 400-408 (1961).] Chemicals which may be used to induce this pain include phenylbenzoquinone (PBQ) and acetic acid. As a result of the chemical irritation to the animal, a characteristic stretching and writhing of the animal (dorsiflexion of the animal's back, extension of its hindlimbs and the strong contraction of its abdominal musculature) will generally occur. […] Drugs which reduce the number of writhes of the animal appear to restore the normal nociceptive threshold of the animal.
Charles River male albino mice, weighing 20 to 30 grams were used in this assay.
Thirty minutes after subcutaneous or intragastric administration to ten mice of 30 mg per kilogram of body weight of a compound of the present invention ("test compound"), […] per 10 g of body weight of a 0.025% w/v solution of PBQ was injected intraperitoneally into each mouse. Ten mice which were given saline in place of a test compound of the invention were used as a control group.
Five minutes later, each mouse was individually placed into a glass beaker for observation, and the number of writhes occurring during the following tenminute period was counted.
A test compound was considered to have produced analgesia in a mouse if, in accordance with the conditions set forth above, and under the test criteria employed for this assay, after the administration of 30 mg per kilogram of body weight of a compound of the present invention to the mouse, the number of writhes elicited by a mouse injected with PBQ was equal to, or less than, one-half the median number of writhes recorded for the saline-treated control group of mice that day, as described by Taber in "Predictive Value of Analgesic Assays in Mice and Rats," Advances in Biochemical Psychopharmacology, 8, 191 (1974).
The standard initial screening dose of a test compound employed in this assay was […] for both routes of administration. If this initial screening dose of the test compound produced analgesia in seven of ten mice, then the effect of additional doses of the test compound on the writhing response was evaluated, and then the ED50 dose was generally calculated. (The slopes of the dose-response curves for all test compounds analyzed were compared as described by Taltarida and Murray, Manual of Pharmacologic Calculations, Page 11 (Springer Verlag, New York, 1981)).
The results for the particular compounds of the present invention analyzed in this assay, and discussed in the examples identified below which correspond thereto, are presented in Table I hereinbelow under the heading "PBQ WRITHING ASSAY". The fractions indicate the number of mice out of 9 or 10 in which the initial screening dose of a test compound produced analgesia. The numbers which are not fractions represent ED50 doses.

[1] = target: T1, prostaglandin E2-induced contractions of segments of guinea pig ileum (Cavia porcellus, UniProt A0A286XHJ6); experiment: Prostaglandin (PGE) Antagonism Assay, inhibition of prostaglandin E2-induced contractions of guinea pig ileum segments; parameters: species or system guinea pig (male albino); conditions: 37° C., Schild plot, read-out: PGE ANTAGONISM IN GUINEA PIG ILEUM (pA2) (converted)
T1 construct: Segments of ileum about 2 cm long were then cut and mounted in a 10-mL tissue bath; from tissue; host or cells: ileum segments of male albino guinea pigs
T1 sequence (A0A286XHJ6 1-405): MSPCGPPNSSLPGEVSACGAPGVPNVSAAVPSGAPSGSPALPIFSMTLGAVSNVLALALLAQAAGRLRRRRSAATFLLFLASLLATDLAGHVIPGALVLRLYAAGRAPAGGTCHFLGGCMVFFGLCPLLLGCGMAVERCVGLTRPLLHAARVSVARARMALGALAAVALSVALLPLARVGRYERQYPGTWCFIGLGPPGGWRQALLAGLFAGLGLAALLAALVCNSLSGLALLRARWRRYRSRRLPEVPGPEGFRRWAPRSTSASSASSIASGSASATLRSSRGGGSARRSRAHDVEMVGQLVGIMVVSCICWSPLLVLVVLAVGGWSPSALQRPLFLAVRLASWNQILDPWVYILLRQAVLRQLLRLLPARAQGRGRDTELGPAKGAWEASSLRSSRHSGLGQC
Protocol: In order to determine the effectiveness of several of the compounds of the present invention ("test compounds") as prostaglandin E2 antagonists,a prostaglandin antagonism assay was conducted, as described below, to determine the ability of these compounds to inhibit prostaglandin E2 -induced contractions of segments of guinea pig ileum.
Male albino guinea pigs weighing 200 to 500 grams were sacrificed by cervical dislocation.
The ileums were then quickly removed from the guinea pigs and placed in a modified Tyrode solution, a solution which is known to those of skill in the art, containing one-half of the usual amount of magnesium ions.
Segments of ileum about 2 cm long were then cut and mounted in a 10-mL tissue bath containing the modified Tyrode solution. The solution was maintained at 37° C. and aerated with a gaseous mixture of 95% oxygen and 5% carbon dioxide.
Submaximal contractions of the ileum segments were then generated by injecting prostaglandin E2 into the bath, and detected isotonically. Data for a control prostaglandin E2 dose response curve plotting concentration of prostaglandin E2 versus number of contractions generated was then obtained by experimentally adjusting the dose of the prostaglandin E2 being injected into the tissue bath, in a manner known by those of skill in the art.
Solutions or suspensions containing an initial amount of a test compound in modified Tyrode solution ("test solutions/suspensions") were then separately substituted for the tissue bath. Each test solution/suspension was then kept in constant contact with the ileum tissue, except for brief periods to drain the bath in preparation for rinsing with fresh test solution/suspension. Different doses of prostaglandin E2 were again injected into the test solutions/suspensions.
A second prostaglandin E2 dose response curve was then generated for PGE2 in the presence of a test compound.
A dose ratio of EC50 doses (that dose of a compound or drug which is necessary to elicit a 50% maximal biological response and, thus, which is necessary to elicit a 50% reduction in the contractions of %he guinea pig ileum segments in this assay) was then calculated from the results of each test in a manner known by those of skill in the art. […]
If the initial concentration of a test compound was determined to be "active," then varying concentrations of the test compound were then assayed.
The pA2 value (a statistical constant which is a common measure of expressing the potency of a particular drug as a competitive antagonist) was then calculated for each test compound by schild plot calculations, as described by H. O. Schild, "pA A New , Scale for the Measurement of Drug Antagonism, " Br. J. Pharmacol, 2, 189 (1947), according to the following mathematical formula: […]

[2] = system: isolated smooth muscle preparations; conditions: cited from earlier work
[3] = system: urethane-anesthetized rats; conditions: cited from earlier work
[4] = Mus musculus, po, intragastric, mice, read-out: PBQ WRITHING ASSAY, No. Out of 10 (mice in which the initial screening dose produced analgesia), I.G. (converted)
[5] = Mus musculus, sc, subcutaneous, mice, read-out: PBQ WRITHING ASSAY, No. Out of 10 (mice in which the initial screening dose produced analgesia), S.C. (converted)

Structure (SMILES)	responders at 30 mg/kg (mice; [4]) [%]	responders at 30 mg/kg (mice; [5]) [%]	Kb [1] [nM]	further results
CCCCCC(/C=C/C(=O)N1Cc2ccccc2Oc2ccc(Cl)cc21)OC(=O)CN (centres unmarked) [Example 12, glycine, 1-[3-(8-chloro-10,11-dihydrodibenz-[b,f][1,4]oxazepin-10-yl)-3-oxo-1E-propenyl]-hexyl ester, monohydrochloride]	55.6	30	–	rank order of potency in the Writhing Assay (mice): Example 17 > Example 9 > Example 4 > Example 8 > Example 5 > Example 12
CCCCC(C)(C/C=C/C(=O)N1Cc2ccccc2Oc2ccc(Cl)cc21)O[Si](C)(C)C (centres unmarked) [Example 5, 8-chloro-10,11-dihydro-10-[5-methyl-1-oxo-5-[(trimethylsilyl)oxy]-2E-nonenyl]-dibenz[b,f][1,4]oxazepine]	30	60	–	–
CCCCCC(C)(O)/C=C/C(=O)N1Cc2ccccc2Oc2ccc(Cl)cc21 (centres unmarked) [Example 9, 8-chloro-10,11-dihydro-10-(4-hydroxy-4-methyl-1-oxo-2E-nonenyl)dibenz[b,f][1,4]oxazepine]	50	90	617	–
CCCCCC(=O)/C=C/C(=O)N1Cc2ccccc2Oc2ccc(Cl)cc21 [Example 13, 8-chloro-10,11-dihydro-10-(1,4-dioxo-2E-nonenyl)dibenz[b,f][1,4]oxazepin]	10	22.2	–	–
CCCCC(C)(O)C/C=C/C(=O)N1Cc2ccccc2Oc2ccc(Cl)cc21 (centres unmarked) [Example 6, 8-chloro-10,11-dihydro-10-(5-hydroxy-5-methyl-1-oxo-2E-nonenyl)dibenz[b,f][1,4]oxazepine]	40	40	166	–
O=C(Cc1ccccc1)NNC(=O)N1Cc2ccccc2Oc2ccc(Cl)cc21 [SC-18637]	–	–	–	inhibition of the stimulant actions of prostaglandins [2]: inhibit the stimulant actions of prostaglandins on isolated smooth muscle preparations
CCCCCC(C)(/C=C/C(=O)N1Cc2ccccc2Oc2ccc(Cl)cc21)O[Si](C)(C)C (centres unmarked) [Example 8, 8-chloro-10,11-dihydro-10-[4-methyl-1-oxo-4-[(trimethylsilyl)oxy]-2E-nonenyl]dibenz-[b,f][1,4]oxazepine]	60	40	–	–
O=C(CCC(=O)N1Cc2ccccc2Oc2ccc(Cl)cc21)CCc1ccncc1 [Example 17, 8-chloro-10-[1,4-dioxo-6-(4-pyridinyl)hexyl]-10,11-dihydrodibenz[b,f][1,4]-oxazepine, monohydrochloride]	–	–	102	ED50 (mice; Mus musculus, po, intragastric, mice, ED50 dose, read-out: PBQ WRITHING ASSAY, ED50, I.G.): 5.4 mg/kg; most potent compound tested in the Writhing Assay (mice; in words): the most potent compound of the invention tested in this assay; rank order of potency in the Writhing Assay (mice): Example 17 > Example 9 > Example 4 > Example 8 > Example 5 > Example 12
CCCCC(C)(C/C=C\C(=O)N1Cc2ccccc2Oc2ccc(Cl)cc21)O[Si](C)(C)C (centres unmarked) [Example 4, 8-chloro-10,11-dihydro-10-[5-methyl-1-oxo-5-[(trimethylsilyl)oxy]-2Z-nonenyl]-dibenz[b,f][1,4]oxazepine]	50	80	–	–
CCCCCC(O)/C=C/C(=O)N1Cc2ccccc2Oc2ccc(Cl)cc21 (centres unmarked) [Example 11]	20	30	214	–
CC(=O)NNC(=O)N1Cc2ccccc2Oc2ccc(Cl)cc21 [SC-19220]	–	–	–	bladder capacity [3]: increased the bladder capacity; voiding efficiency of micturition [3]: reduced the voiding efficiency of micturition; inhibition of the stimulant actions of prostaglandins [2]: inhibit the stimulant actions of prostaglandins on isolated smooth muscle preparations
CCCCCC(O)C#CC(=O)N1Cc2ccccc2Oc2ccc(Cl)cc21 (centres unmarked) [Example 15, 8-chloro-10,11-dihydro-10-(4-hydroxy-1-oxo-2-nonynyl)dibenz[b,f][1,4]oxazepine]	10	30	–	–
CCCCCC/C=C/C(=O)N1Cc2ccccc2Oc2ccc(Cl)cc21 [Example 14, 8-chloro-10,11-dihydro-10-(1-oxo-2E-nonenyl)dibenz[b,f][1,4]oxazepine]	10	10	–	–
